Reference: ChEMBL document CHEMBL5442219

Key:
Settings in all cases: Compound concentration 10 µM
[1] = target: T1, Muscarinic acetylcholine receptor M2 (Homo sapiens) (UniProt P08172)
T1 sequence (whole entry): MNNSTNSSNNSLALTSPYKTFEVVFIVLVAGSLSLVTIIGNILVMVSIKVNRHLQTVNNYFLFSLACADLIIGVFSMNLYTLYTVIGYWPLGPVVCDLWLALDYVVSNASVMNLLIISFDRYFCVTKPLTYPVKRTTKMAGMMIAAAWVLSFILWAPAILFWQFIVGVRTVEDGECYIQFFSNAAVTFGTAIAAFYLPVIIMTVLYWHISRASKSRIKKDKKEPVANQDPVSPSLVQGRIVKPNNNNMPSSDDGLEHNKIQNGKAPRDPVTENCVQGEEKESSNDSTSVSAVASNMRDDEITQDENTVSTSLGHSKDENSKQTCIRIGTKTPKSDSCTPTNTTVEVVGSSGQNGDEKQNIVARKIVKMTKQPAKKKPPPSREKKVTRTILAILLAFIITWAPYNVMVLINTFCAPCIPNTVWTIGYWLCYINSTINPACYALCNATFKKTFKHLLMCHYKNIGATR
Description: PDSP Primary Binding target: CHRM2 - Compounds are tested at 10 uM concentration, plate are incubated at room temperature in the dark for 90 minutes. Reaction are stopped by vacuum filtration onto 0.3% polyethyleneimine soaked filter mats using Filtermate harvester. Scintilation cocktail is then melted onto microwave-dried filters on a hot plate and the radio activity is counted in Microbia counter.

[2] = target: T2, Alpha-1D adrenergic receptor (Homo sapiens) (UniProt P25100)
T2 sequence (whole entry): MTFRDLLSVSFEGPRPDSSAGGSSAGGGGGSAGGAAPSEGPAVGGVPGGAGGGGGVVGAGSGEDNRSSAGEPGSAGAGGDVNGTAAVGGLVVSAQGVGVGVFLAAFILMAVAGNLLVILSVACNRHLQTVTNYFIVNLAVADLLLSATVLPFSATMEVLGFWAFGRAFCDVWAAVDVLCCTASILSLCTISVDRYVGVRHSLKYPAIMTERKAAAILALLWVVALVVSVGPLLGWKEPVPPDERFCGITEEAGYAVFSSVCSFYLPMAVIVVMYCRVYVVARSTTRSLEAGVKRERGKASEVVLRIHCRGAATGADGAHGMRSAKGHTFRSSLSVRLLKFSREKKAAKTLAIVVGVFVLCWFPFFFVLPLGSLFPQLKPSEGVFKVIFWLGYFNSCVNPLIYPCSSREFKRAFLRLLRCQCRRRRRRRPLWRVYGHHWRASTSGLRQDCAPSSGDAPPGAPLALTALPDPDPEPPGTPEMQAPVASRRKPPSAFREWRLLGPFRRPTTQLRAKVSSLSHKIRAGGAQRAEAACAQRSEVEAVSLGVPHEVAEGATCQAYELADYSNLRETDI
Description: PDSP Primary Binding target: ADRA1D - Compounds are tested at 10 uM concentration, plate are incubated at room temperature in the dark for 90 minutes. Reaction are stopped by vacuum filtration onto 0.3% polyethyleneimine soaked filter mats using Filtermate harvester. Scintilation cocktail is then melted onto microwave-dried filters on a hot plate and the radio activity is counted in Microbia counter.

[3] = target: T3, Muscarinic acetylcholine receptor M5 (Homo sapiens) (UniProt P08912)
T3 sequence (whole entry): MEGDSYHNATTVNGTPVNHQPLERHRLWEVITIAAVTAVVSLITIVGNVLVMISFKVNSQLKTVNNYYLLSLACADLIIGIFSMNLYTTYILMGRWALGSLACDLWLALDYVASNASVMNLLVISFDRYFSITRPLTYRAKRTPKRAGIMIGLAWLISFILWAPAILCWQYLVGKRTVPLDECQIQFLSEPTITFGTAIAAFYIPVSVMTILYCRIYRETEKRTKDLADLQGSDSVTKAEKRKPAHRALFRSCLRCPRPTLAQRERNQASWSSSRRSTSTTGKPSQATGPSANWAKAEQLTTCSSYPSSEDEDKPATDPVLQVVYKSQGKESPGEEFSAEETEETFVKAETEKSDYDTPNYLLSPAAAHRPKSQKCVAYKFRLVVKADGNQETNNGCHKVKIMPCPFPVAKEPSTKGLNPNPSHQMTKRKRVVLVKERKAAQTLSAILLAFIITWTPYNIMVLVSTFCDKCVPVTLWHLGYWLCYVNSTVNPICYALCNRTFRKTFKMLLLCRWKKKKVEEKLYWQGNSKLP
Description: PDSP Primary Binding target: CHRM5 - Compounds are tested at 10 uM concentration, plate are incubated at room temperature in the dark for 90 minutes. Reaction are stopped by vacuum filtration onto 0.3% polyethyleneimine soaked filter mats using Filtermate harvester. Scintilation cocktail is then melted onto microwave-dried filters on a hot plate and the radio activity is counted in Microbia counter.

[4] = target: T4, Alpha-2A adrenergic receptor (Homo sapiens) (UniProt P08913)
T4 sequence (whole entry): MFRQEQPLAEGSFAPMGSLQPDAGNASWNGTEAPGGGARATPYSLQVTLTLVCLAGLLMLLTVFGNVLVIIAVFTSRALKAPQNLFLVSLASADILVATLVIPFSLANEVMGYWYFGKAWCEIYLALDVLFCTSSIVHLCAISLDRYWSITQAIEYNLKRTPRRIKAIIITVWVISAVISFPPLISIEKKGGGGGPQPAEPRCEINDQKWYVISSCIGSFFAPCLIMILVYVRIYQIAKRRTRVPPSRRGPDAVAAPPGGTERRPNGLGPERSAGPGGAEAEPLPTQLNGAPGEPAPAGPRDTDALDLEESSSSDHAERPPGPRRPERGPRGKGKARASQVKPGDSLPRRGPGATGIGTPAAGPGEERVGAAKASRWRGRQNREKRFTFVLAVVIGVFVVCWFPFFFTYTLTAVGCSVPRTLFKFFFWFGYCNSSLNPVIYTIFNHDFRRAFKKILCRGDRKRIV
Description: PDSP Primary Binding target: ADRA2A - Compounds are tested at 10 uM concentration, plate are incubated at room temperature in the dark for 90 minutes. Reaction are stopped by vacuum filtration onto 0.3% polyethyleneimine soaked filter mats using Filtermate harvester. Scintilation cocktail is then melted onto microwave-dried filters on a hot plate and the radio activity is counted in Microbia counter.

[5] = target: 5-hydroxytryptamine receptor 1B (Homo sapiens) (UniProt P28222)
Chain of 5-hydroxytryptamine receptor 1B (Homo sapiens) (P28222 whole entry): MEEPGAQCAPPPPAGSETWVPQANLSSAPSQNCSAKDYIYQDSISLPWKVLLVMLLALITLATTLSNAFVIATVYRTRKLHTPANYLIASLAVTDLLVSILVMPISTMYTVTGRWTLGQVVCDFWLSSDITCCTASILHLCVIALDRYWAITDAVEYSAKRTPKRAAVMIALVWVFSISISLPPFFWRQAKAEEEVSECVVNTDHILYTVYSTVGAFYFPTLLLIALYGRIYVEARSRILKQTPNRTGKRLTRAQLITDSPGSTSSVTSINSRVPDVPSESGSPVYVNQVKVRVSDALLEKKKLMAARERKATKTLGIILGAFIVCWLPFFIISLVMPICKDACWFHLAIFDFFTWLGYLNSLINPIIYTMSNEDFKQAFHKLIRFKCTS
Description: PDSP Primary Binding target: HTR1B - Compounds are tested at 10 uM concentration, plate are incubated at room temperature in the dark for 90 minutes. Reaction are stopped by vacuum filtration onto 0.3% polyethyleneimine soaked filter mats using Filtermate harvester. Scintilation cocktail is then melted onto microwave-dried filters on a hot plate and the radio activity is counted in Microbia counter.

[6] = target: Sodium-dependent serotonin transporter (Homo sapiens) (UniProt P31645)
Chain of Sodium-dependent serotonin transporter (Homo sapiens) (P31645 whole entry, looked up): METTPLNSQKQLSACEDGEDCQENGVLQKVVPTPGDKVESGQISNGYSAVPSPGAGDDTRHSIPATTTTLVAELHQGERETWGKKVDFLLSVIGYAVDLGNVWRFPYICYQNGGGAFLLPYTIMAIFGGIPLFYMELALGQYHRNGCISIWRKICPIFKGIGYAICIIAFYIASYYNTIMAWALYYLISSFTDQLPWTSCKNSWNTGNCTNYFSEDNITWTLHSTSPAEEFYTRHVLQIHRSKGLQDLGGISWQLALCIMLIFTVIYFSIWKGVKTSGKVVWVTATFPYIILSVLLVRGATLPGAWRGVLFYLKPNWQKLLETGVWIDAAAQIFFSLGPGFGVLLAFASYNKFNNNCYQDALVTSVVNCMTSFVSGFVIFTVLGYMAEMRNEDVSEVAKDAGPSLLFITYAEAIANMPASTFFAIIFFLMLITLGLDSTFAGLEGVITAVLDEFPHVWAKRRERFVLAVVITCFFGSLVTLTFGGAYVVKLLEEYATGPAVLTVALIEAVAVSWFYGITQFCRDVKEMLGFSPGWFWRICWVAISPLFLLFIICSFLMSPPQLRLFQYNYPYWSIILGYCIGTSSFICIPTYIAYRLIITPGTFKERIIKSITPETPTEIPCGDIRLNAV
Description: PDSP Primary Binding target: SLC6A4 - Compounds are tested at 10 uM concentration, plate are incubated at room temperature in the dark for 90 minutes. Reaction are stopped by vacuum filtration onto 0.3% polyethyleneimine soaked filter mats using Filtermate harvester. Scintilation cocktail is then melted onto microwave-dried filters on a hot plate and the radio activity is counted in Microbia counter.

Row | Structure (SMILES) | inhibition [1] [%] | inhibition [2] [%] | inhibition [3] [%] | inhibition [4] [%] | inhibition [5] [%] | inhibition [6] [%]
1 | COc1ccnc(N2CCC3(CCCN(Cc4c[nH]c5ccccc45)C3=O)CC2)n1 | -2.35 | – | – | – | – | –
2 | COC1CCN(c2cccc(-c3cc(NC(C)=O)nc(-n4nc(C)cc4C)n3)n2)CC1 | – | 17.4 | -2.53 | – | – | –
3 | Cc1nnn(-c2ccc(-c3ccc(C4(C(=O)O)CC4)cc3)cc2)c1NC(=O)O[C@H](C)c1ccccc1 | – | 23.9 | – | 0.57 | -3.56 | –
4 | Cc1csc(NC(=O)c2cc(F)cc(Oc3cncnc3)c2)n1 | -7.43 | – | – | – | -4.65 | 21.2
